Assay results as given in patent publication US10336762B2 (priority 2017, dated 2019).
pEC50, pIC50: −log10 of the molar value. Read-outs that look alike come from different tables or passages of the source.

Key:
TNFα = test: cells; assay type: cell-based, human; details: LPS-stimulated human monocytes, read-out: EC50 TNF
IRAK4 enzyme = IRAK4 enzyme (Homo sapiens (Human), UniProt Q9NWZ3); test: biochemical; assay type: biochemical; details: IRAK4 enzyme, 500 μM ATP
[1] = Homo sapiens, Monocyte, TNFα content
[2] = Homo sapiens, Monocyte, TNFα by TR-FRET

Chain of IRAK4 enzyme (Q9NWZ3 whole entry): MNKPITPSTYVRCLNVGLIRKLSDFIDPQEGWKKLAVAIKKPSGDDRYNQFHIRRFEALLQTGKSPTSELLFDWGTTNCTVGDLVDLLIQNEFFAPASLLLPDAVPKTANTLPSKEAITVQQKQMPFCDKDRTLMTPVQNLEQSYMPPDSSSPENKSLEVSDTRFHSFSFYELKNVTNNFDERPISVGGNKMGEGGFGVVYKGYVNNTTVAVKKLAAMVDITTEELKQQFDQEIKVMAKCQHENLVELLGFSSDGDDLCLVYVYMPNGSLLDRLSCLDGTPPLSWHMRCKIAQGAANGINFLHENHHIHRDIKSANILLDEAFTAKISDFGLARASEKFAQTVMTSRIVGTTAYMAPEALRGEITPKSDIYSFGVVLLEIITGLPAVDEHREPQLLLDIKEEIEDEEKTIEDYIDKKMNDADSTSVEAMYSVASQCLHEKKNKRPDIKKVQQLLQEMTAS

SMILES	pEC50 (TNFα; [1])	pIC50 (IRAK4 enzyme; TR-FRET)	pIC50 (IRAK4 enzyme; TR-FRET (HTRF))	pEC50 (TNFα; [2])	pEC50 (TNFα; TNFα content)
CC(C)(O)[C@H](F)CNC(=O)c1cnc(-c2ccc3cc(C#N)cnn23)cc1Nc1cccc(C#N)c1 [Example 141, (R)-4-((3-cyanophenyl)amino)-6-(3-cyano-pyrrolo[1,2-b]pyridazin-7-yl)-N-(2-fluoro-3-hydroxy-3-methylbutyl)nicotinamide]	7.15	> 9.00			
CC(C)(O)[C@H](F)CNC(=O)c1cnc(-c2ccc3cc(C#N)cnn23)cc1NCCCCS(C)(=O)=O [Example 438, (R)-6-(3-cyanopyrrolo[1,2-b]pyridazin-7-yl)-N-(2-fluoro-3-hydroxy-3-methylbutyl)-4-((4-(methylsulfonyl)butyl)amino)nicotinamide]	6.87		9.00		
CC(C)(O)[C@H](F)CNC(=O)c1cnc(-c2ccc3cc(C#N)cnn23)cc1Nc1cnc(Cl)nc1 [Example 971, (R)-4-((2-chloropyrimidin-5-yl)amino)-6-(3-cyano-pyrrolo[1,2-b]pyridazin-7-yl)-N-(2-fluoro-3-hydroxy-3-methylbutyl)nicotinamide]		> 9.00		7.13	
CCOc1cncc(Nc2cc(-c3ccc4cc(C#N)cnn34)ncc2C(=O)NC[C@@H](F)C(C)(C)O)c1 [Example 835, (R)-6-(3-cyanopyrrolo[1,2-b]pyridazin-7-yl)-4-((5-ethoxypyridin-3-yl)amino)-N-(2-fluoro-3-hydroxy-3-methylbutyl)nicotinamide]		> 9.00		8.10	
CC(=O)NCc1ccc(Nc2cc(-c3ccc4cc(C#N)cnn34)ncc2C(=O)NC[C@@H](F)C(C)(C)O)cc1 [Example 241, (R)-4-((4-(acetamidomethyl)phenyl)amino)-6-(3-cyanopyrrolo[1,2-b]pyridazin-7-yl)-N-(2-fluoro-3-hydroxy-3-methylbutyl)nicotinamide]	7.80	> 9.00			
CC(C)(O)[C@H](F)CNC(=O)c1cnc(-c2ccc3cc(C#N)cnn23)cc1Nc1ccccc1C(N)=O [Example 382, (R)-4-((2-carbamoyl-phenyl)amino)-6-(3-cyanopyrrolo[1,2-b]pyridazin-7-yl)-N-(2-fluoro-3-hydroxy-3-methylbutyl)nicotinamide]	6.23	8.00			
CC(C)Nc1cc(-c2ccc3cc(C#N)cnn23)ncc1C(=O)NCC1CCS(=O)(=O)CC1 [Example 121, 6-(3-cyanopyrrolo[1,2-b]pyridazin-7-yl)-N-((1,1-dioxidotetrahydro-2H-thiopyran-4-yl)methyl)-4-(isopropylamino) nicotinamide]	6.44	8.15			
CC(C)(O)[C@H](F)CNC(=O)c1cnc(-c2ccc3cc(C#N)cnn23)cc1NC1CCC(C)(N2CCOCC2)CC1 (single isomer, unassigned) [Example 690]			9.00		7.15
CC(C)(O)C(=O)CNC(=O)c1cnc(-c2ccc3cc(C#N)cnn23)cc1NC12CCC(O)(CC1)CC2 [Example 810, 6-(3-cyanopyrrolo[1,2-b]pyridazin-7-yl)-N-(3-hydroxy-3-methyl-2-oxobutyl)-4-((4-hydroxy-bicyclo[2.2.2]octan-1-yl)amino)nicotinamide]		> 9.00		8.05	
COC(=O)NC[C@H]1C[C@H](Nc2cc(-c3ccc4cccnn34)ncc2C(=O)NC[C@@H](F)C(C)(C)O)C1 [Example 818, methyl (((1R,3r)-3-((5-(((R)-2-fluoro-3-hydroxy-3-methylbutyl)carbamoyl)-2-(pyrrolo[1,2-b]pyridazin-7-yl)pyridin-4-yl)amino)cyclo-butyl)methyl)carbamate]		8.40		6.65	
CNC(=O)[C@H]1CC[C@H](NC(=O)c2cnc(-c3ccc4cc(C#N)cnn34)cc2NC23CC(NC(C)=O)(C2)C3)CC1 [Example 479, 4-((3-acetamidobicyclo[1.1.1]pentan-1-yl)amino)-6-(3-cyanopyrrolo[1,2-b]pyridazin-7-yl)-N-((1r,4r)-4-(methylcarbamoyl)cyclohexyl)nicotinamide]	7.15		> 9.00		
CC(C)(O)[C@H](F)CNC(=O)c1cnc(-c2ccc3cc(C#N)cnn23)cc1Nc1ccc(-c2cnco2)nc1 [Example 625, (R)-6-(3-cyanopyrrolo[1,2-b]pyridazin-7-yl)-N-(2-fluoro-3-hydroxy-3-methylbutyl)-4-((6-(oxazol-5-yl)pyridin-3-yl)amino)nicotinamide]	7.66		> 9.00		
COc1cc(Nc2cc(-c3ccc4cc(C#N)cnn34)ncc2C(=O)NC[C@@H](F)C(C)(C)O)ccc1N1CCOCC1 [Example 685, (R)-6-(3-cyanopyrrolo[1,2-b]pyridazin-7-yl)-N-(2-fluoro-3-hydroxy-3-methylbutyl)-4-((3-methoxy-4-morpholino-phenyl)amino)nicotinamide]	6.40		8.00		
CCOc1cccc(Nc2cc(-c3ccc4cc(C#N)cnn34)ncc2C(=O)NC[C@@H](F)C(C)(C)O)c1 [Example 836, (R)-6-(3-cyanopyrrolo[1,2-b]pyridazin-7-yl)-4-((3-ethoxyphenyl)amino)-N-(2-fluoro-3-hydroxy-3-methylbutyl)nicotinamide]		8.70		7.37	
CC(C)(O)[C@H](F)CNC(=O)c1cnc(-c2ccc3cc(C#N)cnn23)cc1N[C@H]1C[C@H](CNC(=O)CC(F)F)C1 [Example 656, 6-(3-cyanopyrrolo[1,2-b]pyridazin-7-yl)-4-(((1r,3R)-3-((3,3-difluoropropanamido)methyl)cyclobutyl)amino)-N-((R)-2-fluoro-3-hydroxy-3-methylbutyl) nicotinamide]	7.40		> 9.00		
CNC(=O)CNC(=O)c1cnc(-c2ccc3cc(C#N)cnn23)cc1NC12CCC(O)(CC1)CC2 [Example 334, 6-(3-cyanopyrrolo[1,2-b]pyridazin-7-yl)-4-((4-hydroxybicyclo[2.2.2]octan-1-yl)amino)-N-(2-(methylamino)-2-oxoethyl)nicotinamide]	6.53	> 9.00			
CC(C)(C)OC(=O)N1CC2(CC(Nc3cc(-c4ccc5cc(C#N)cnn45)ncc3C(=O)NC[C@@H](F)C(C)(C)O)C2)C1 [Example 448, (R)-tert-butyl 6-((2-(3-cyanopyrrolo[1,2-b]pyridazin-7-yl)-5-((2-fluoro-3-hydroxy-3-methylbutyl)carbamoyl)pyridin-4-yl)amino)-2-azaspiro[3.3]heptane-2-carboxylate]	5.69		7.49		
COc1cnc(Nc2cc(-c3ccc4cc(C#N)cnn34)ncc2C(=O)NC[C@@H](F)C(C)(C)O)cn1 [Example 840, (R)-6-(3-cyanopyrrolo[1,2-b]pyridazin-7-yl)-N-(2-fluoro-3-hydroxy-3-methylbutyl)-4-((5-methoxypyrazin-2-yl)amino)nicotinamide]		> 9.00		7.77	
CC(C)(O)[C@H](F)CNC(=O)c1cnc(-c2ccc3cc(C#N)cnn23)cc1NCc1cccnc1 [Example 170, (R)-6-(3-cyanopyrrolo[1,2-b]pyridazin-7-yl)-N-(2-fluoro-3-hydroxy-3-methylbutyl)-4-((pyridin-3-ylmethyl)amino) nicotinamide]	6.66	8.52			
CNC(=O)O[C@H]1CC[C@H](Nc2cc(-c3ccc4cc(C#N)cnn34)ncc2C(=O)NC[C@@H](F)C(C)(C)O)CC1 [Example 165, (1R,4r)-4-((2-(3-cyano-pyrrolo[1,2-b]pyridazin-7-yl)-5-(((R)-2-fluoro-3-hydroxy-3-methylbutyl)carbamoyl)pyridin-4-yl)amino)cyclohexyl methylcarbamate]	< 5.00	7.23			
